Measured values reported in a flash point compilation (Sun et al. 2020).

In the case of `Cc1ccc(S(=O)(=O)Cl)cc1` [4-methylbenzenesulfonyl chloride], the flash point is reported as 128.00 °C.
Compound `N#CCCC#N` [butanedinitrile] has a flash point of 132.00 °C.
In the case of `O=C(O)CCC(=O)O` [butanedioic acid], the flash point is reported as 160.00 °C.
Compound `C=CC(C)(O)CCC=C(C)C` (stereo unspecified) [3,7-dimethylocta-1,6-dien-3-ol] has a flash point of 78.00 °C.
For `CC1CCC(C(C)C)C(O)C1` (stereo unspecified) [5-methyl-2-propan-2-ylcyclohexan-1-ol], the flash point was 91.00 °C.
In the case of `C=CC(=C)Cl` [2-chlorobuta-1,3-diene], the flash point is reported as -20.00 °C.
For `CC(C)CCCCCCCOC(=O)c1ccccc1C(=O)OCCCCCCCC(C)C` [bis(8-methylnonyl) benzene-1,2-dicarboxylate], the flash point was 232.00 °C.
`C[Si](C)(C)Cl` [chloro(trimethyl)silane] gave a flash point of -18.00 °C.
Compound `CCCCNC` [N-methylbutan-1-amine] has a flash point of 13.00 °C.
Compound `NCCNCCNCCNCCN` has a flash point of 163.00 °C.
With `CCCCOC(C)=O` [butyl acetate] the flash point was 22.00 °C.
`Brc1ccc(-c2ccccc2)cc1` [1-bromo-4-phenylbenzene] showed a flash point of 143.00 °C.
Compound `CN1CCCC1c1cccnc1` (stereo unspecified) [3-(1-methylpyrrolidin-2-yl)pyridine] has a flash point of 101.00 °C.
With `O=C(O)c1ccc2c(c1)C(=O)OC2=O` [1,3-dioxo-2-benzofuran-5-carboxylic acid] the flash point was 227.00 °C.
With `COc1ccccc1` [anisole] the flash point was 52.00 °C.
For `C=CCC(C)C` [4-methylpent-1-ene], the flash point was -32.00 °C.
`CCCCCCCCCCOC(=O)c1ccccc1C(=O)OCCCCCCCCCC` [didecyl benzene-1,2-dicarboxylate] gave a flash point of 232.00 °C.
Compound `ClCCOCOCCCl` [1-chloro-2-(2-chloroethoxymethoxy)ethane] has a flash point of 110.00 °C.
`CCC(CC)COC(C)=O` [2-ethylbutyl acetate] gave a flash point of 54.00 °C.
For `CCOc1cc(C=O)ccc1O` [3-ethoxy-4-hydroxybenzaldehyde], the flash point was 145.00 °C.
Compound `Nc1ccc(O)cc1` [4-aminophenol] has a flash point of 195.00 °C.
With `CCC(=O)OC` [methyl propanoate] the flash point was -2.00 °C.
`COc1ccc(C(C)=O)cc1` [1-(4-methoxyphenyl)ethanone] gave a flash point of 138.00 °C.
Work on `OCCBr` [2-bromoethanol] yielded a flash point of 41.00 °C.
`Cc1cccc(O)c1` [3-methylphenol] showed a flash point of 86.00 °C.
For `COC(C)=O` [methyl acetate], the flash point was -10.00 °C.
For `O=C1OC(=O)C2CCCCC12` (stereo unspecified) [3a,4,5,6,7,7a-hexahydro-2-benzofuran-1,3-dione], the flash point was 149.00 °C.
`O=c1[nH]cnc2c1ncn2[C@H]1C[C@H](O)[C@@H](COP(=O)(O)OP(=O)(O)O)O1` showed a flash point of 229.00 °C.
Work on `CCCCCCOC(=O)c1ccccc1C(=O)OCCCCCC` [dihexyl benzene-1,2-dicarboxylate] yielded a flash point of 177.00 °C.
For `[Ni+2].c1cc[cH-]c1.c1cc[cH-]c1` [cyclopenta-1,3-diene;nickel(2+)], the flash point was 4.00 °C.
`CC(O)CO` (stereo unspecified) [propane-1,2-diol] showed a flash point of 99.00 °C.
In the case of `CC(=O)OO` [ethaneperoxoic acid], the flash point is reported as 41.00 °C.
In the case of `CC(C)(C)c1cc(C(C)(C)C)c(O)c(C(C)(C)C)c1` [2,4,6-tritert-butylphenol], the flash point is reported as 130.00 °C.
In the case of `C1=CCCCC1` [cyclohexene], the flash point is reported as -12.00 °C.
Work on `O=C(O)CCP(CCC(=O)O)CCC(=O)O` [3-[bis(2-carboxyethyl)phosphanyl]propanoic acid] yielded a flash point of 202.00 °C.
`CC(=O)OCC(C)C` [2-methylpropyl acetate] gave a flash point of 17.00 °C.
`C=CCCCCCCCCCCC` [tridec-1-ene] gave a flash point of 79.00 °C.
In the case of `CCCCC(CC)COP(=O)(Oc1ccccc1)Oc1ccccc1` (stereo unspecified) [2-ethylhexyl diphenyl phosphate], the flash point is reported as 224.00 °C.
Work on `CCC(C)c1ccccc1` (stereo unspecified) [butan-2-ylbenzene] yielded a flash point of 52.00 °C.
In the case of `N=C(N)N(c1ccccc1)c1ccccc1` [1,1-diphenylguanidine], the flash point is reported as 170.00 °C.
With `CC(C)CCCCCCOC(=O)C1CCCCC1C(=O)OCCCCCCC(C)C` (stereo unspecified) [bis(7-methyloctyl) cyclohexane-1,2-dicarboxylate] the flash point was 224.00 °C.
In the case of `O=NN1CCCC1` [1-nitrosopyrrolidine], the flash point is reported as 83.00 °C.
For `CCCCCCCCCc1ccc(OCCOCCOCCOCCOCCOCCOCCOCCOCCO)cc1`, the flash point was 197.00 °C.
Work on `N#CN` [cyanamide] yielded a flash point of 141.00 °C.
`CC(C)CCCCCOC(=O)c1ccccc1C(=O)OCCCCCC(C)C` [bis(6-methylheptyl) benzene-1,2-dicarboxylate] gave a flash point of 232.00 °C.
In the case of `CC1=CCC(O)(C(C)C)CC1` (stereo unspecified) [4-methyl-1-propan-2-ylcyclohex-3-en-1-ol], the flash point is reported as 79.00 °C.
`CCCCCCS` [hexane-1-thiol] gave a flash point of 20.00 °C.
With `CC(=O)C(C)C` [3-methylbutan-2-one] the flash point was 6.00 °C.
For `CC(=O)OCCO` [2-hydroxyethyl acetate], the flash point was 102.00 °C.
For `C=CCCCC` [hex-1-ene], the flash point was -26.00 °C.
For `O=c1ccc2ccccc2o1` [chromen-2-one], the flash point was 151.00 °C.
Compound `OCCCCO` [butane-1,4-diol] has a flash point of 119.00 °C.
With `Nc1ccc(Oc2ccc(N)cc2)cc1` [4-(4-aminophenoxy)aniline] the flash point was 219.00 °C.
`Sc1ccccc1` [benzenethiol] gave a flash point of 53.00 °C.
Work on `CC(C)c1ccc2ccccc2c1` [2-propan-2-ylnaphthalene] yielded a flash point of 122.00 °C.
`CCOP(=O)(SC(C)CC)SC(C)CC` (stereo unspecified) [2-[butan-2-ylsulfanyl(ethoxy)phosphoryl]sulfanylbutane] gave a flash point of 129.00 °C.
`NC(=O)OCCO` [2-hydroxyethyl carbamate] showed a flash point of 188.00 °C.
`CCCNCC(O)COc1ccccc1C(=O)CCc1ccccc1` (stereo unspecified) gave a flash point of 199.00 °C.
Compound `CCCCCCCCc1ccc(Nc2ccc(CCCCCCCC)cc2)cc1` [4-octyl-N-(4-octylphenyl)aniline] has a flash point of 213.00 °C.
`CCCCCCCCCCCCCC` [tetradecane] showed a flash point of 100.00 °C.
Compound `N#CCCl` [2-chloroacetonitrile] has a flash point of 48.00 °C.
In the case of `C=CC(=O)O` [prop-2-enoic acid], the flash point is reported as 54.00 °C.
`C=Cc1ccccc1` [styrene] gave a flash point of 31.00 °C.
`O=C(OC[C@H]1O[C@@H](OC(=O)c2cc(O)c(O)c(OC(=O)c3cc(O)c(O)c(O)c3)c2)[C@H](OC(=O)c2cc(O)c(O)c(OC(=O)c3cc(O)c(O)c(O)c3)c2)[C@@H](OC(=O)c2cc(O)c(O)c(OC(=O)c3cc(O)c(O)c(O)c3)c2)[C@@H]1OC(=O)c1cc(O)c(O)c(OC(=O)c2cc(O)c(O)c(O)c2)c1)c1cc(O)c(O)c(OC(=O)c2cc(O)c(O)c(O)c2)c1` gave a flash point of 199.00 °C.
`CC(C)CCCCCO` [6-methylheptan-1-ol] gave a flash point of 82.00 °C.
For `CCCCOC(=O)CC` [butyl propanoate], the flash point was 38.00 °C.
`CC(C)CC(C)N` (stereo unspecified) [4-methylpentan-2-amine] gave a flash point of 13.00 °C.
For `c1ccc2c(c1)ccc1ncccc12` [benzo[f]quinoline], the flash point was 166.00 °C.
For `C=CC(=O)OCC` [ethyl prop-2-enoate], the flash point was 9.00 °C.
In the case of `COC(F)(F)C(Cl)Cl` [2,2-dichloro-1,1-difluoro-1-methoxyethane], the flash point is reported as 63.00 °C.
For `CC1=CCC2CC1C2(C)C` (stereo unspecified) [2,6,6-trimethylbicyclo[3.1.1]hept-2-ene], the flash point was 33.00 °C.
Work on `C/C=C/c1ccc(O)c(OC)c1` [2-methoxy-4-[(E)-prop-1-enyl]phenol] yielded a flash point of 113.00 °C.
With `CC(C)OC(=O)Cc1ccccc1` [propan-2-yl 2-phenylacetate] the flash point was 95.00 °C.
`ClC(Cl)=C(Cl)C(Cl)=C(Cl)Cl` [1,1,2,3,4,4-hexachlorobuta-1,3-diene] gave a flash point of 90.00 °C.
For `CC(C)(O)C#N` [2-hydroxy-2-methylpropanenitrile], the flash point was 74.00 °C.
With `CC(C)c1cc(OO)cc(C(C)C)c1` [1-hydroperoxy-3,5-di(propan-2-yl)benzene] the flash point was 79.00 °C.
`CC(C)OB(OC(C)C)OC(C)C` [tripropan-2-yl borate] gave a flash point of 28.00 °C.
With `CCCCCCCCCC=O` [decanal] the flash point was 85.00 °C.
Compound `O=C1CCO1` [oxetan-2-one] has a flash point of 70.00 °C.
With `CC/C=C/C#N` [(E)-pent-2-enenitrile] the flash point was 23.00 °C.
`CC(=O)C=C=O` [but-1-ene-1,3-dione] showed a flash point of 33.00 °C.
`CC1OC(C)OC(C)O1` (stereo unspecified) [2,4,6-trimethyl-1,3,5-trioxane] gave a flash point of 36.00 °C.
Work on `CCCCCCCCCCCCCCCCCC(=O)OC` [methyl octadecanoate] yielded a flash point of 153.00 °C.
`CCCCN(C(C)=O)c1ccccc1` [N-butyl-N-phenylacetamide] gave a flash point of 141.00 °C.
For `CCCCOCCOCCO` [2-(2-butoxyethoxy)ethanol], the flash point was 78.00 °C.
In the case of `Clc1ccc(-c2cccc(Cl)c2Cl)c(Cl)c1` [1,2-dichloro-3-(2,4-dichlorophenyl)benzene], the flash point is reported as 141.00 °C.
With `CCOC1CCC=CO1` (stereo unspecified) [2-ethoxy-3,4-dihydro-2H-pyran] the flash point was 37.00 °C.
Compound `CCCCCCCCCOC(=O)c1ccccc1C(=O)OCCCCCCCCC` [dinonyl benzene-1,2-dicarboxylate] has a flash point of 216.00 °C.
For `CC1CC(O)CC(C)(C)C1` (stereo unspecified) [3,3,5-trimethylcyclohexan-1-ol], the flash point was 74.00 °C.
In the case of `Oc1ccc(-c2ccccc2)cc1` [4-phenylphenol], the flash point is reported as 166.00 °C.
`C[N+](=O)[O-]` [nitromethane] showed a flash point of 35.00 °C.
In the case of `S=C([S-])NCCNC(=S)[S-].[Zn+2]` [zinc;N-[2-(sulfidocarbothioylamino)ethyl]carbamodithioate], the flash point is reported as 90.00 °C.
With `Cc1ccccc1N` [2-methylaniline] the flash point was 85.00 °C.
`O=[N+]([O-])c1cc(Cl)ccc1Cl` [1,4-dichloro-2-nitrobenzene] gave a flash point of 135.00 °C.
Compound `CC1CCCC(O)C1` (stereo unspecified) [3-methylcyclohexan-1-ol] has a flash point of 62.00 °C.
For `C=C(C)c1ccccc1` [prop-1-en-2-ylbenzene], the flash point was 54.00 °C.
